Target: T1, hVR1 (Homo sapiens, UniProt Q8NER1)
T1 construct: expressed in transfected cells
Test: hVR1 FLIPR (Fluorometric Image Plate Reader) screening assay, IC50 determination
Format: cell-based
Details: transfected CHO cells stably expressing hVR1; Fluo-4 calcium fluorescence; agonist 50 nM capsaicin or MES buffer pH 5.2
Procedure: 1. hVR1 FLIPR (Fluorometric Image Plate Reader) Screening Assay
Transfected CHO cells, stably expressing hVR1 (15,000 cells/well) are seeded in 50 ul media in a black clear bottom 384 plate (Greiner) and grown in a humidified incubator (37° C., 2% CO2), 24-30 hours prior to experiment.
Subsequently, the media is removed from the cell plate by inversion and 2 μM Fluo-4 is added using a multidrop (Labsystems). Following the 40 minutes dye incubation in the dark at 37° C. and 2% CO2, the extracellular dye present is washed away using an EMBLA (Scatron), leaving the cells in 40 ul of assay buffer (1×HBSS, 10 mM D-Glucose, 1 mM CaCl2, 10 mM HEPES, 10×7.5% NaHCO3 and 2.5 mM Probenecid).
FLIPR Assay —IC50 Determination Protocol
For IC50 determinations the fluorescence is read using FLIPR filter 1 (em […]). A cellular baseline recording is taken for 30 seconds, followed by a 20 μl addition of 10, titrated half-log concentrations of the test compound, yielding cellular concentration ranging from 3 μM to 0.1 nM. […] This consequently leading to a reduction in fluorescence signal and providing a reduced fluorescence reading, compared with no compound, buffer controls. Data is exported by the FLIPR program as a sum of fluorescence calculated under the curve upon the addition of capsaicin. […]

T1 sequence (Q8NER1 whole entry): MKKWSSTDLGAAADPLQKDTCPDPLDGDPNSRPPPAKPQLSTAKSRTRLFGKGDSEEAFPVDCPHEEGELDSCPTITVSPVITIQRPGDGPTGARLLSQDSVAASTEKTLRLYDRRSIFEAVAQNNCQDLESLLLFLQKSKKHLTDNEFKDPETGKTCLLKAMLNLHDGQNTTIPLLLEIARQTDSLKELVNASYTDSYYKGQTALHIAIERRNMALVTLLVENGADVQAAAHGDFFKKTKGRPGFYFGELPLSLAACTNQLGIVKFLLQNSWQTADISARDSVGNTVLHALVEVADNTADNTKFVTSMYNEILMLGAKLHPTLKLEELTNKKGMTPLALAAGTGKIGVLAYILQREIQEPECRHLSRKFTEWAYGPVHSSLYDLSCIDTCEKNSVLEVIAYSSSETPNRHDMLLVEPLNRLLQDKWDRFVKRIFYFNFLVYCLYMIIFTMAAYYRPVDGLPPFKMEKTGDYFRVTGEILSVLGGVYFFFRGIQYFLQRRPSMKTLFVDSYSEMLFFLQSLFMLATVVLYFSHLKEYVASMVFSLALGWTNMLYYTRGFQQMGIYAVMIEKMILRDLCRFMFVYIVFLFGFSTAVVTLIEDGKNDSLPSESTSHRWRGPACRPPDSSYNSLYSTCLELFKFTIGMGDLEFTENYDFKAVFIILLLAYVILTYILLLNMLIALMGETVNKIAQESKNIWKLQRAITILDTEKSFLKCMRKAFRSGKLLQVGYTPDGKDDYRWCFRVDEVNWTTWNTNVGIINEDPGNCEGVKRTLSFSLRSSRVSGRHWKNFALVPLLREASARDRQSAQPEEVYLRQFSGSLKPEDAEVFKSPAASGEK

IC50 | SMILES
0.119 µM | Cc1cc(C(F)(F)F)c2c(N)c(C(=O)NCCc3ccccc3C)sc2n1 [Compound 3, 3-amino-6-methyl-N-[2-(2-methylphenyl)ethyl]-4-(trifluoromethyl)thieno[2,3-b]pyridine-2-carboxamide]
0.716 µM | Cc1cc(C(F)(F)F)c2c(N)c(C(=O)NCCc3ccccc3)sc2n1 [Compound 11, 3-amino-6-methyl-N-(2-phenylethyl)-4-(trifluoromethyl)thieno[2,3-b]pyridine-2-carboxamide]
